Data: the supplement of paper PMC10307832

Tests used:
Assay in all cases: relative viability (nuclei count vs DMSO), 5 days (fraction); higher = more cells survive
NCI-H520 = test system: NCI-H520
How it was run: (§1)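 Relative viability is defined as nuclei in treated wells over nuclei in vehicle wells. Duplicate plates were run and medians reported. Lung cancer cell lines in 1536-well plates were dosed by pin tool one day after seeding, with one drug or with a fixed anchor-drug dose plus five library-drug doses (not always all listed) in √10 steps, and nuclei were counted after 5 days.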

NCI-H358 = test system: NCI-H358
How it was run: as §1

LCLC-103H = test system: LCLC-103H
How it was run: as §1

LU99A = test system: LU99A
How it was run: as §1

HCC-827 = test system: HCC-827
How it was run: as §1

NCI-H1793 = test system: NCI-H1793
How it was run: as §1

SK-LU-1 = test system: SK-LU-1
How it was run: as §1

CAL-12T = test system: CAL-12T
How it was run: as §1

NCI-H2347 = test system: NCI-H2347
How it was run: as §1

HCC-44 = test system: HCC-44
How it was run: as §1

RERF-LC-KJ = test system: RERF-LC-KJ
How it was run: as §1

NCI-H322M = test system: NCI-H322M
How it was run: as §1

NCI-H1755 = test system: NCI-H1755
How it was run: as §1

NCI-H2126 = test system: NCI-H2126
How it was run: as §1

ChaGo-K-1 = test system: ChaGo-K-1
How it was run: as §1

NCI-H1666 = test system: NCI-H1666
How it was run: as §1

NCI-H1944 = test system: NCI-H1944
How it was run: as §1

NCI-H3122 = test system: NCI-H3122
How it was run: as §1

NCI-H1395 = test system: NCI-H1395
How it was run: as §1

LXF-289 = test system: LXF-289
How it was run: as §1

NCI-H1792 = test system: NCI-H1792
How it was run: as §1

SMILES: CN1CCN(CCOc2cc(OC3CCOCC3)c3c(Nc4c(Cl)ccc5c4OCO5)ncnc3c2)CC1 [Saracatinib] + CC(=O)Nc1cccc(-n2c(=O)n(C3CC3)c(=O)c3c(Nc4ccc(I)cc4F)n(C)c(=O)c(C)c32)c1 [Trametinib] (partner 0.02 µM)
- relative viability (NCI-H520; first compound 0.02 µM): 0.703
- relative viability (NCI-H520; first compound 0.2 µM): 0.53
- relative viability (NCI-H520; first compound 0.6325 µM): 0.586
- relative viability (NCI-H520; first compound 2 µM): 0.273
- relative viability (NCI-H358; first compound 0.02 µM): 0.156
- relative viability (NCI-H358; first compound 0.2 µM): 0.131
- relative viability (NCI-H358; first compound 0.6325 µM): 0.105
- relative viability (NCI-H358; first compound 2 µM): 0.0979
- relative viability (LCLC-103H; first compound 0.02 µM): 0.716
- relative viability (LCLC-103H; first compound 0.2 µM): 0.58
- relative viability (LCLC-103H; first compound 0.6325 µM): 0.751
- relative viability (LCLC-103H; first compound 2 µM): 0.656
- relative viability (LU99A; first compound 0.02 µM): 0.532
- relative viability (LU99A; first compound 0.2 µM): 0.473
- relative viability (LU99A; first compound 0.6325 µM): 0.565
- relative viability (LU99A; first compound 2 µM): 0.459
- relative viability (HCC-827; first compound 0.02 µM): 0.542
- relative viability (HCC-827; first compound 0.2 µM): 0.306
- relative viability (HCC-827; first compound 0.6325 µM): 0.225
- relative viability (HCC-827; first compound 2 µM): 0.156
- relative viability (NCI-H1793; first compound 0.02 µM): 0.439
- relative viability (NCI-H1793; first compound 0.2 µM): 0.395
- relative viability (NCI-H1793; first compound 0.6325 µM): 0.513
- relative viability (NCI-H1793; first compound 2 µM): 0.475
- relative viability (SK-LU-1; first compound 0.02 µM): 0.51
- relative viability (SK-LU-1; first compound 0.2 µM): 0.364
- relative viability (SK-LU-1; first compound 0.6325 µM): 0.375
- relative viability (SK-LU-1; first compound 2 µM): 0.301
- relative viability (CAL-12T; first compound 0.02 µM): 0.394
- relative viability (CAL-12T; first compound 0.2 µM): 0.373
- relative viability (CAL-12T; first compound 0.6325 µM): 0.475
- relative viability (CAL-12T; first compound 2 µM): 0.323
- relative viability (NCI-H2347; first compound 0.02 µM): 0.265
- relative viability (NCI-H2347; first compound 0.2 µM): 0.265
- relative viability (NCI-H2347; first compound 0.6325 µM): 0.379
- relative viability (NCI-H2347; first compound 2 µM): 0.277
- relative viability (HCC-44; first compound 0.02 µM): 1.05
- relative viability (HCC-44; first compound 0.2 µM): 1.02
- relative viability (HCC-44; first compound 0.6325 µM): 1.18
- relative viability (HCC-44; first compound 2 µM): 1.21
- relative viability (RERF-LC-KJ; first compound 0.02 µM): 0.907
- relative viability (RERF-LC-KJ; first compound 0.2 µM): 0.869
- relative viability (RERF-LC-KJ; first compound 0.6325 µM): 0.916
- relative viability (RERF-LC-KJ; first compound 2 µM): 0.687
- relative viability (NCI-H322M; first compound 0.02 µM): 0.529
- relative viability (NCI-H322M; first compound 0.2 µM): 0.449
- relative viability (NCI-H322M; first compound 0.6325 µM): 0.582
- relative viability (NCI-H322M; first compound 2 µM): 0.357
- relative viability (NCI-H1755; first compound 0.02 µM): 0.724
- relative viability (NCI-H1755; first compound 0.2 µM): 0.714
- relative viability (NCI-H1755; first compound 0.6325 µM): 0.75
- relative viability (NCI-H1755; first compound 2 µM): 0.694
- relative viability (NCI-H2126; first compound 0.02 µM): 0.592
- relative viability (NCI-H2126; first compound 0.2 µM): 0.509
- relative viability (NCI-H2126; first compound 0.6325 µM): 0.551
- relative viability (NCI-H2126; first compound 2 µM): 0.517
- relative viability (ChaGo-K-1; first compound 0.02 µM): 0.935
- relative viability (ChaGo-K-1; first compound 0.2 µM): 0.566
- relative viability (ChaGo-K-1; first compound 0.6325 µM): 0.906
- relative viability (ChaGo-K-1; first compound 2 µM): 0.84
- relative viability (NCI-H1666; first compound 0.02 µM): 0.829
- relative viability (NCI-H1666; first compound 0.2 µM): 0.939
- relative viability (NCI-H1666; first compound 0.6325 µM): 1.06
- relative viability (NCI-H1666; first compound 2 µM): 0.823
- relative viability (NCI-H1944; first compound 0.02 µM): 0.421
- relative viability (NCI-H1944; first compound 0.2 µM): 0.391
- relative viability (NCI-H1944; first compound 0.6325 µM): 0.417
- relative viability (NCI-H1944; first compound 2 µM): 0.308
- relative viability (NCI-H3122; first compound 0.02 µM): 0.212
- relative viability (NCI-H3122; first compound 0.2 µM): 0.163
- relative viability (NCI-H3122; first compound 0.6325 µM): 0.154
- relative viability (NCI-H3122; first compound 2 µM): 0.155
- relative viability (NCI-H1395; first compound 0.02 µM): 1.07
- relative viability (NCI-H1395; first compound 0.2 µM): 0.995
- relative viability (NCI-H1395; first compound 0.6325 µM): 0.953
- relative viability (NCI-H1395; first compound 2 µM): 0.905
- relative viability (LXF-289; first compound 0.02 µM): 0.677
- relative viability (LXF-289; first compound 0.2 µM): 0.644
- relative viability (LXF-289; first compound 0.6325 µM): 0.655
- relative viability (LXF-289; first compound 2 µM): 0.685
- relative viability (NCI-H1792; first compound 0.02 µM): 0.492
- relative viability (NCI-H1792; first compound 0.2 µM): 0.355
- relative viability (NCI-H1792; first compound 0.6325 µM): 0.382
- relative viability (NCI-H1792; first compound 2 µM): 0.3
